Counter-ions that a name gives are not always drawn. Like-named read-outs stand apart in the source and are kept apart here.
Assays:
[1] = test system: carbachol-induced contraction in guinea-pigs trachea; test: Carbachol-induced contraction in guinea-pig trachea strips, relaxation, isobolographic analysis; assay type: cell-based; settings: Cavia porcellus, read-out: ED50, relaxation of carbachol-induced contraction
Experimental: Male guinea-pigs (380-420 g) are used. The investigation conforms to the Guide for the Care and Use of Laboratory Animals published by the US National Institutes of Health (NIH Publication No. 85-23, revised 1996).
The trachea is removed, cleaned and cut into two zig-zag strips, according to Emmerson et al. (J. Pharm. Pharmacol., 1979; 31:798). A sub-maximal concentration of carbachol (3×10^−7 M) is then added to the organ bath and when stable contraction is reached, a cumulative concentration-response curve (from 1×10^−11 to 1×10^−7 M) to carmoterol or compound 1′ is generated (n=12 for each compound). Maximal relaxation is tested by adding a maximal dose of isoproterenol (3×10^−7 M) at the end of the curve. Data are expressed as percentages of the isoproterenol-induced maximal relaxation. Isobolographic analysis is used to characterize the pharmacological interaction between carmoterol and compound 1′.
To estimate the experimental ED50MIX, the dose-effect curve resulting from this second set of experiments (Table 1) is fitted with a mixed logistic model. All computations are carried out resorting to NLMIXED procedure (SAS/STAT® User's Guide, version 9, 2004. SAS Institute Inc., Cary, N.C.).

M2 muscarinic receptors = molecular target: T1, M2 muscarinic receptors (Homo sapiens, UniProt P08172); test: Dissociation / duration of action on M2 receptors; assay type: binding; settings: compared with tiotropium bromide
T1 sequence (P08172 1-466): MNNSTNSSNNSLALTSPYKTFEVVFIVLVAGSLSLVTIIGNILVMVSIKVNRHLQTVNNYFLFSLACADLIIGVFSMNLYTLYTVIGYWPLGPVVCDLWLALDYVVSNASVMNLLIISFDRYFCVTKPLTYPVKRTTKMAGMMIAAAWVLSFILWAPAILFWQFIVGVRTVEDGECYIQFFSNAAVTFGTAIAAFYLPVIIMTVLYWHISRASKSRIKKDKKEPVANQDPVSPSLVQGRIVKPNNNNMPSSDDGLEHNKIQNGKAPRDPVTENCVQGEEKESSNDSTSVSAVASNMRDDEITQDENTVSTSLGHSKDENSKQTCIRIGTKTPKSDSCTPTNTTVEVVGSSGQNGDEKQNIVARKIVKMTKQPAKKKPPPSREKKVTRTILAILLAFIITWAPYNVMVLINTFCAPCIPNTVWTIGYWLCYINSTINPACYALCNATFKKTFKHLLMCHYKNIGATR

muscarinic receptors = test: Receptor potency and duration of action compared with tiotropium bromide
[2] = Bronchodilation activity: Ach-induced increase in Penh, barometric plethysmography after nebulisation; assay type: in vivo, guinea pigs; settings: male, guinea pig, lung, inhaled; nebulisation with submaximal bronchodilator activity, 2 hours after treatment; read-out: retained dose in the target organ (lung levels)
Experimental: (§1) Airway reactivity is measured using barometric plethysmography (Buxco, USA). Male guinea pigs (500-600 g) are individually placed in plexiglass chambers. After an acclimatisation period, animals are exposed to nebulised saline for 1 minute to obtain airway baseline reading. This is followed by a 1 minute challenge with nebulised acetylcholine (Ach)-2.5 mg/mL.
(§2) After 60 minutes, 5 minutes nebulisation of vehicle or the compound 1′ in the range 2.5-250 μM are applied and Ach challenge is then repeated after 2, 5, 24, 48, and 72 hours (h). Recording of pressure fluctuations in the chambers are taken for 5 minutes after each nebulisation and analysed to calculate Enhanced Pause (Penh). Airway reactivity is expressed as percentage increase in Penh compared with Penh values from the nebulisation of vehicle.

[3] = test system: acetylcholine (Ach) challenge, airway reactivity; test: as above; assay type: in vivo, guinea pigs; settings: for bronchoprotective effect: twenty-four hours
Experimental: as §1, §2

**Q.** With `COc1ccc(C[C@@H](C)NC[C@H](O)c2ccc(O)c3[nH]c(=O)ccc23)cc1` [carmoterol, reference compound] as the molecule, how does the EC50 ([1]; carbachol 3×10^−7 M, % of isoproterenol-induced maximal relaxation, n=12) read?
**A.** Its EC50 is 0.54 nM.

**Q.** For `O=C(C[N+]12CCC(CC1)C(OC(=O)N(Cc1cc(F)c(F)c(F)c1)c1cccc(F)c1)C2)c1cccs1` (stereo not shown) [chloride salt of active compound 1, 3-[[[(3-fluorophenyl)[(3,4,5-trifluorophenyl)methyl]amino]carbonyl]oxy]-1-[2-oxo-2-(2-thienyl)ethyl]-1-azoniabicyclo[2.2.2]octane], which “duration of action on the M2 receptors” value (M2 muscarinic receptors) is on record?
**A.** The value was “significantly short-acting”.

**Q.** And the duration of action (muscarinic receptors)?
**A.** Its duration of action is “equieffective to tiotropium bromide”.

**Q.** What about the receptor potency (muscarinic receptors) of the same molecule?
**A.** The receptor potency was “equieffective to tiotropium bromide”.

**Q.** What does the source list for `O=C(C[N+]12CCC(CC1)C(OC(=O)N(Cc1cc(F)c(F)c(F)c1)c1cccc(F)c1)C2)c1cccs1` (stereo not shown) [compound 1′, 3-[[[(3-fluorophenyl)[(3,4,5-trifluorophenyl)methyl]amino]carbonyl]oxy]-1-[2-oxo-2-(2-thienyl)ethyl]-1-azoniabicyclo [2.2.2]octane]?
**A.** EC50 [1]: 0.93 nM; concentration at 2 h [2]: ~50 ng/g; bronchoprotective effect ([3]; 25 μM inhalation): 63.7±15.1%; inhibition of Ach-induced increase in Penh ([3]; 50 μM inhalation, 48 hours): 49.2±23.2%; bronchoprotective effect ([3]; 50 μM inhalation): 87.1±8.7%; maximal effect, inhibition of Ach-induced increase in Penh ([3]; 50 μM nebulised, two hours after end of nebulisation): 99.6±0.4; inhibition of Ach-induced increase in Penh (effect) ([3]; 250 μM inhalation, 48 hours): 83.0±16.1%; residual activity, inhibition of Ach-induced increase in Penh ([3]; 250 μM inhalation, 72 hours): 34.8±20.9%; duration of effect ([3]; inhalation of lower concentrations (below 25 μM)): ≤ 5 h

Source: patent publication US20090181935A1, “COMPOSITIONS COMPRISING AN […] AND A LONG-ACTING BETA-AGONIST” (Chiesi Farmaceutici S.p.A., priority 2008, published 2009)
